Measured values published in article PMC5494507, “γ‐Secretase inhibitors in cancer clinical trials are pharmacologically and functionally distinct” (EMBO Molecular Medicine, 2017).
Entries after “also recorded” stand apart in the source; their conditions may differ. Read-outs that look alike come from different tables or passages of the source.

Legend:
[1] = tested on: NOTCH; set-up: method as in ref Appendix Table S1 (Gavai et al, 2015; Cook et al, 2010; Krop et al, 2012; Wei et al, 2010; Luistro et al, 2009; Mitani et al, 2012); settings: ref Appendix Table S1 (Gavai et al, 2015; Cook et al, 2010; Krop et al, 2012; Wei et al, 2010; Luistro et al, 2009; Mitani et al, 2012); read-out: Reported IC50s NOTCH; cited from earlier work
[2] = tested on: APP; assay: Endogenous APP-CTF accumulation in MDA-MB-231 cells (Western blot); type: cell-based; settings: for APP CTF level / accumulation at 100 nM / APP CTF increase: MDA-MB-231 (231 cells), triplicate, 100 nM; for concentration from which APP‐CTF process is inhibited: MDA-MB-231, 16 h; for APP CTF increase: vs DMSO
Procedure: To extend the study to a more physiological system, we assessed endogenous NOTCH1 cleavage inhibition using the triple‐negative breast cancer line MDA‐MB‐231 (Fig 6A). Full‐length blots are shown in source data for Fig 6. NOTCH1 cleavage was detected by Western blotting using the Cell Signaling neo‐epitope NICD antibody. […] The inhibition of endogenous APP in MDA‐MB‐231 cells was also tested by detecting accumulation of APP COOH‐terminal fragments (APP‐CTFs). […] Figure 6D summarized the APP‐CTF band intensities normalized for DMSO group. The original blots are available in source data for Fig 6.
Values are mean ± SD of three tests. • APP‐CTF Western blot of MDA‐MB‐231 cells treated with indicated concentration of GSIs for 16 h. • Band intensities of APP‐CTF with 0.1 μM GSIs were normalized for DMSO control group. Values are mean ± SD of three tests. Data information: Original blots are provided as source data. All band intensity data are derived from three independent experiments and are analyzed by one‐way ANOVA using GraphPad Prism6 software. All experiments were repeated three times.Source data are available online for this figure.

[3] = tested on: cNOTCH4sub; assay: Cell-based γ-secretase cleavage assay, cNOTCH4sub in H4 cells (Aβ-like peptide ELISA); set-up: species or system human; settings: Aβ-like peptide in media, GSI overnight
Procedure: (§1) Using these cell‐based γ‐secretase cleavage assays, we systematically investigated the substrate inhibition profile of BMS‐906024, MK‐0752, PF‐308414, RO4929097, Semagacestat, and DAPT. We treated H4 cells stably expressing cNOTCH1‐4sub with 4 pM to 10 μM of GSIs (Fig 5A and Table 2) and measured the Aβ‐like peptide secreted into the media.
(§2) For the cell‐based assay, all substrates contain a human NOTCH4 signal peptide sequence ([…]), amyloid β peptide (Aβ1–25/K16A) epitope tag followed by the juxtamembrane region (JMD) of the given substrate and a FLAG tag ([…]) at the COOH‐terminal. K16A mutant was created to decrease potential α‐secretase cleavage. The cDNAs were generated by gene synthesis conducted by Genscript. A schematic representation of the substrates is provided in Fig 4A, and sequences of the cDNAs and the proteins are provided in Appendix Fig S6. For clarity, these substrates are referred to as cell‐based assay substrates (e.g., NOTCH1 is cNOTCH1sub). Substrate cDNAs were cloned into pCDNA3.1 (Invitrogen, Carlsbad, CA, USA) for expression in H4 cells (ATCC, Manassas, VA).
(§3) H4 cells were cultured in Opti‐mem media (Thermo‐Fisher) supplemented with Hyclone 6% fetal bovine serum (GE, Logan, Utah, USA) and 1% penicillin/streptomycin (Life Technologies, Grand Island, NY, USA). pCDNA3.1 plasmids containing the substrate cDNAs were transfected into H4 cells using FuGENE HD reagent (Madison, WI, USA). Stable cell lines were established using G418 selection. […] Cells and conditioned media were used for WB, IP, and ELISA.
(§4) Sandwich ELISAs used for Aβ detection were performed as previously described (Murphy et al, 1999; Ran et al, 2014). Briefly, Aβ and Aβ‐like peptides in conditioned media were captured with Ab5 antibody and detected with horseradish peroxidase labeled mAb 4G8 (Biolegend). Synthetic Aβ1‐40 was used as standard. All ELISAs were developed with TMB substrate (KPL, Gaithersburg, Maryland, USA). Bis‐Tris precast gels (Biorad, Hercules, CA, USA) were used for all SDS–PAGE. Monoclonal anti‐FLAG M2 antibody (Sigma) and Aβ1‐16 antibody 6E10 (Covance) were used for Western blotting at 1:1,000 dilution. Anti‐CD74 In‐1 antibody (BD Bioscience, San Jose, CA, USA) was used for A20 cell lysate Western blotting at dilution of 1:1,000. MDA‐MB‐231 cell extracts were prepared by lysing cells in RIPA buffer containing protease and phosphatase inhibitors. The lysates were kept on ice for 30 min and vortexed every 10 min, and then centrifuged at 4°C for 10 min at 1,000 g. The supernatants were collected, and protein concentrations were determined by Bradford Assay. Pan‐NOTCH1 antibody (C‐20) (Santa Cruz Biotechnology) and cleaved NOTCH1 (Val1744) antibody ([…]) were used at 1:500 and 1:100 dilution in the test of endogenous NOTCH1 inhibition with β‐actin expression used as loading control. β‐actin antibody was used at 1:1,000 dilution (Sigma). Band intensities normalized for actin using densitometry analysis with ImageJ Software (NIH, USA).

[4] = tested on: cNOTCH3sub; assay: Cell-based γ-secretase cleavage assay, cNOTCH3sub in H4 cells (Aβ-like peptide ELISA); set-up: species or system human
Procedure: as §1, §2, §3, §4

[5] = Aβ-like peptide in media, GSI overnight, read-out: IC50 cNOTCH3sub
[6] = value in parentheses, read-out: IC50 cNOTCH3sub, from curves excluding the Aβ level > 120%

Compound | IC50 [1] [nM] | APP CTF level / accumulation at 100 nM [2] | concentration from which APP‐CTF process is inhibited [2] [nM] | IC50 [3] [nM] | effect on cNOTCH3sub cleavage at low concentrations [4] | IC50 [4, 5] [nM] | IC50 [4, 6] [nM] | APP CTF increase [2] [times] | APP CTF level / accumulation at 100 nM ([2]; listed as MK) | concentration that significantly increases cleavage of the cNOTCH3sub ([4]; potentiation at low inhibitor concentration) [nM]
CC(C)[C@H](O)C(=O)N[C@@H](C)C(=O)N[C@@H]1C(=O)N(C)CCc2ccccc21 [Semagacestat] | 14.1 | hard to see; also recorded: did not significantly increase CTF level | ≥ 500 | 46 | potentiate | 391 | 129 |  |  | 
CN1C(=O)[C@@H](NC(=O)[C@H](CCC(F)(F)F)[C@H](CCC(F)(F)F)C(N)=O)N=C(c2ccccc2)c2ccccc21 [BMS‐906024] | 0.7 to 3.4 |  | ≥ 20 | 0.71 |  | 1.14 |  | > 15 |  | 
O=C(O)CC[C@H]1CC[C@@](c2cc(F)ccc2F)(S(=O)(=O)c2ccc(Cl)cc2)CC1 [MK‐0752] | 55 | hard to see | ≥ 500 | 191 | increases cNOTCH3sub cleavage at low doses | 370 | 194 |  | did not significantly increase CTF level | 
CC(C)(C(=O)NCC(F)(F)C(F)(F)F)C(=O)N[C@@H]1C(=O)Nc2ccccc2-c2ccccc21 [RO4929097] | 5 |  | ≥ 20 | 3.4 |  | 19.8 | 6.93 | > 15 |  | 0.5 to 2.5
CCC[C@H](N[C@H]1CCc2cc(F)cc(F)c2C1)C(=O)Nc1cn(C(C)(C)CNCC(C)(C)C)cn1 [PF‐3084014] | 13.3 |  | ≥ 20 | 0.81 | potentiates cleavage of NOTCH3 | 1.21 |  | > 15 |  | 
